In the CheMixHub drug solubility set:

Test: xn = mol fraction of the nth substance listed, in the solute-free solvent

CS(=O)(=O)c1ccc(C(O)C(CF)NC(=O)C(Cl)Cl)cc1 (stereo unspecified) + CCO + O
solubility (g/100 g solution)
Conditions | 278.15 K | 283.15 K | 288.15 K | 293.15 K | 298.15 K | 303.15 K | 308.15 K | 313.15 K | 318.15 K
x2 = 0.04165 | 0.113 | 0.15 | 0.202 | 0.267 | 0.34 | 0.453 | 0.569 | 0.728 | 0.926
x2 = 0.08908 | 0.225 | 0.295 | 0.39 | 0.507 | 0.655 | 0.841 | 1.06 | 1.33 | 1.64
x2 = 0.1436 | 0.376 | 0.498 | 0.639 | 0.817 | 1.03 | 1.29 | 1.6 | 1.99 | 2.41
x2 = 0.2068 | 0.536 | 0.699 | 0.887 | 1.13 | 1.42 | 1.76 | 2.15 | 2.65 | 3.18
x2 = 0.2812 | 0.663 | 0.857 | 1.08 | 1.38 | 1.72 | 2.13 | 2.59 | 3.18 | 3.85
x2 = 0.3698 | 0.77 | 0.998 | 1.27 | 1.6 | 2.01 | 2.48 | 3.02 | 3.69 | 4.43
x2 = 0.4772 | 0.869 | 1.11 | 1.43 | 1.79 | 2.22 | 2.75 | 3.35 | 4.05 | 4.88
x2 = 0.6101 | 0.959 | 1.22 | 1.55 | 1.94 | 2.42 | 2.98 | 3.59 | 4.37 | 5.21
x2 = 0.7788 | 1.01 | 1.3 | 1.62 | 2.05 | 2.53 | 3.08 | 3.75 | 4.55 | 5.42

O=C1NS(=O)(=O)c2ccccc21 + CC#N + CC(C)O
solubility (g/100 g solution)
Conditions | x2 = 0.0998 | x2 = 0.2002 | x2 = 0.2999 | x2 = 0.3996 | x2 = 0.5004 | x2 = 0.5997 | x2 = 0.7001 | x2 = 0.7997 | x2 = 0.8996
293.15 K | 4.08 | 5.79 | 7.19 | 8.27 | 8.87 | 8.79 | 8.19 | 7 | 5.08
298.15 K | 4.75 | 6.64 | 8.05 | 9.07 | 9.79 | 9.66 | 8.97 | 7.68 | 5.75
303.15 K | 5.49 | 7.5 | 9.3 | 10.4 | 11.2 | 10.8 | 10.1 | 8.77 | 6.38
308.15 K | 6.33 | 8.56 | 10.5 | 11.7 | 12.3 | 12.3 | 11.5 | 9.73 | 7.32
313.15 K | 7.35 | 10 | 12.1 | 13.4 | 14.2 | 14.1 | 13.1 | 11.2 | 8.37
318.15 K | 8.79 | 11.8 | 14.1 | 15.5 | 16.3 | 16.2 | 15.1 | 12.9 | 9.59
323.15 K | 10.3 | 13.5 | 16 | 17.6 | 18.3 | 18 | 16.8 | 14.3 | 10.7

CCC(C(C)O)n1ncn(-c2ccc(N3CCN(c4ccc(OCC5COC(Cn6cncn6)(c6ccc(F)cc6F)C5)cc4)CC3)cc2)c1=O (stereo unspecified) + CCOC(C)=O + CCO
solubility (g/100 g solution)
Conditions | 273.15 K | 278.15 K | 283.15 K | 288.15 K | 293.15 K | 298.15 K | 303.15 K | 308.15 K | 313.15 K
x2 = 0.05491 | 0.0447 | 0.057 | 0.0728 | 0.0894 | 0.109 | 0.13 | 0.151 | 0.174 | 0.201
x2 = 0.1156 | 0.0657 | 0.084 | 0.104 | 0.125 | 0.148 | 0.173 | 0.2 | 0.229 | 0.264
x2 = 0.1831 | 0.106 | 0.131 | 0.158 | 0.188 | 0.217 | 0.251 | 0.289 | 0.33 | 0.38
x2 = 0.2585 | 0.144 | 0.174 | 0.207 | 0.243 | 0.28 | 0.323 | 0.37 | 0.422 | 0.484
x2 = 0.3434 | 0.162 | 0.191 | 0.227 | 0.265 | 0.308 | 0.358 | 0.417 | 0.486 | 0.561
x2 = 0.4396 | 0.142 | 0.171 | 0.202 | 0.237 | 0.27 | 0.311 | 0.359 | 0.412 | 0.48
x2 = 0.5496 | 0.112 | 0.137 | 0.163 | 0.192 | 0.221 | 0.253 | 0.285 | 0.321 | 0.36
x2 = 0.6765 | 0.0924 | 0.114 | 0.136 | 0.158 | 0.182 | 0.206 | 0.232 | 0.259 | 0.294
x2 = 0.8247 | 0.0667 | 0.0831 | 0.101 | 0.119 | 0.138 | 0.158 | 0.182 | 0.21 | 0.24

Clc1ncnc2[nH]ccc12 + C1CCOC1 + CCOC(C)=O
solubility (g/100 g solution)
Conditions | 278.15 K | 283.15 K | 288.15 K | 293.15 K | 298.15 K | 303.15 K | 308.15 K | 313.15 K | 318.15 K | 323.15 K
x2 = 0.1937 | 2.62 | 2.95 | 3.32 | 3.75 | 4.21 | 4.72 | 5.25 | 5.79 | 6.4 | 7.07
x2 = 0.3753 | 3.46 | 3.9 | 4.38 | 4.87 | 5.45 | 6.03 | 6.66 | 7.34 | 8.06 | 8.83
x2 = 0.5458 | 4.65 | 5.2 | 5.79 | 6.4 | 7.13 | 7.83 | 8.57 | 9.41 | 10.2 | 11.2
x2 = 0.6272 | 5.34 | 5.93 | 6.58 | 7.23 | 8 | 8.79 | 9.64 | 10.5 | 11.4 | 12.4
x2 = 0.7061 | 5.97 | 6.66 | 7.32 | 8.1 | 8.9 | 9.77 | 10.6 | 11.5 | 12.6 | 13.5
x2 = 0.8573 | 7.35 | 8.08 | 8.82 | 9.69 | 10.6 | 11.6 | 12.5 | 13.5 | 14.6 | 15.7

O=c1[nH]cc(F)c(=O)[nH]1 + CCCO + C1CCOC1
solubility (g/100 g solution)
Conditions | 283.15 K | 288.15 K | 293.15 K | 298.15 K | 303.15 K | 308.15 K | 313.15 K | 318.15 K | 323.15 K
x2 = 0.2307 | 0.148 | 0.169 | 0.195 | 0.226 | 0.263 | 0.313 | 0.373 | 0.452 | 0.536
x2 = 0.4444 | 0.17 | 0.196 | 0.225 | 0.258 | 0.299 | 0.351 | 0.42 | 0.496 | 0.588
x2 = 0.6428 | 0.201 | 0.229 | 0.258 | 0.297 | 0.34 | 0.397 | 0.467 | 0.543 | 0.625
x2 = 0.8276 | 0.228 | 0.263 | 0.298 | 0.34 | 0.393 | 0.457 | 0.539 | 0.651 | 0.763

O=C1NS(=O)(=O)c2ccccc21 + CO + CC#N
solubility (g/100 g solution)
Conditions | x2 = 0.1002 | x2 = 0.2003 | x2 = 0.2998 | x2 = 0.4002 | x2 = 0.4998 | x2 = 0.6003 | x2 = 0.7001 | x2 = 0.7995 | x2 = 0.9003
293.15 K | 5.52 | 7.2 | 8.84 | 9.66 | 10 | 10.1 | 9.63 | 8.67 | 7.25
298.15 K | 5.88 | 7.96 | 9.73 | 10.6 | 11 | 11.1 | 10.6 | 9.56 | 8.07
303.15 K | 6.65 | 9.04 | 10.9 | 11.9 | 12.5 | 12.5 | 12.1 | 11 | 9.1
308.15 K | 7.35 | 9.93 | 12.1 | 13.2 | 13.8 | 14 | 13.6 | 12.1 | 10.1
313.15 K | 8.31 | 11.2 | 13.3 | 14.7 | 15.4 | 15.6 | 15.1 | 13.9 | 11.7
318.15 K | 9.32 | 12.7 | 15.2 | 16.8 | 17.6 | 17.7 | 17.2 | 15.8 | 13.3
323.15 K | 10.6 | 14.1 | 16.7 | 18.4 | 19.3 | 19.6 | 19.1 | 17.6 | 15.1

CS(=O)(=O)c1ccc(C(O)C(CF)NC(=O)C(Cl)Cl)cc1 (stereo unspecified) + CO + O
solubility (g/100 g solution)
Conditions | 278.15 K | 283.15 K | 288.15 K | 293.15 K | 298.15 K | 303.15 K | 308.15 K | 313.15 K | 318.15 K
x2 = 0.05881 | 0.163 | 0.211 | 0.278 | 0.358 | 0.449 | 0.571 | 0.711 | 0.881 | 1.09
x2 = 0.1233 | 0.379 | 0.485 | 0.609 | 0.762 | 0.939 | 1.15 | 1.41 | 1.71 | 2.06
x2 = 0.1942 | 0.707 | 0.878 | 1.08 | 1.31 | 1.58 | 1.9 | 2.27 | 2.68 | 3.17
x2 = 0.2727 | 1.06 | 1.32 | 1.6 | 1.93 | 2.31 | 2.78 | 3.28 | 3.88 | 4.53
x2 = 0.3599 | 1.47 | 1.83 | 2.25 | 2.71 | 3.25 | 3.88 | 4.58 | 5.45 | 6.34
x2 = 0.4576 | 1.92 | 2.4 | 2.94 | 3.6 | 4.3 | 5.17 | 6.17 | 7.3 | 8.52
x2 = 0.5675 | 2.52 | 3.12 | 3.82 | 4.64 | 5.63 | 6.76 | 7.98 | 9.5 | 11
x2 = 0.6923 | 3.16 | 3.96 | 4.85 | 5.92 | 7.07 | 8.44 | 10.1 | 11.9 | 13.7
x2 = 0.835 | 3.91 | 4.85 | 5.98 | 7.23 | 8.65 | 10.3 | 12.2 | 14.2 | 16.5

Cc1ccc(Nc2nccc(N(C)c3ccc4c(C)n(C)nc4c3)n2)cc1S(N)(=O)=O + CC#N + CCCCO
solubility (g/100 g solution)
Conditions | 288.15 K | 293.15 K | 298.15 K | 303.15 K | 308.15 K | 313.15 K | 318.15 K | 323.15 K | 328.15 K
x2 = 0.311 | 0.00876 | 0.015 | 0.0216 | 0.0293 | 0.0367 | 0.0447 | 0.0534 | 0.0638 | 0.0746
x2 = 0.5462 | 0.0159 | 0.0251 | 0.0355 | 0.0464 | 0.0592 | 0.0722 | 0.0852 | 0.1 | 0.117
x2 = 0.7303 | 0.0138 | 0.0237 | 0.0349 | 0.047 | 0.0614 | 0.0758 | 0.0904 | 0.107 | 0.126
x2 = 0.8784 | 0.0109 | 0.0167 | 0.0237 | 0.0316 | 0.0398 | 0.05 | 0.0607 | 0.0728 | 0.0871
